Reference: patent US6878690B2, “Compounds and methods” (PharmAxis Pty Ltd., priority 2000, dated 2005)
Values joined by “and” are separate entries in the source; they are usually repeats but may differ in a detail not shown here. Equal values may be shown once.

Tests used:
[1] = tested on: DTH response to 2,4-dinitrofluorobenzene (DNFB); assay: Delayed-type hypersensitivity (DTH) response to DNFB, ear swelling; format: in vivo, Balb/C mice
Text: In the present Example, a murine model of Type IV hypersensitivity or delayed-type hypersensitivity (DTH) response to cutaneous contact with the chemical hapten 2,4-dinitrofluorobenzene (DNFB) (Aldrich Chemical Company Inc, USA) was used as a model to measure the anti-inflammatory effects of compounds of the present invention. Specific pathogen-free 8-12 week old female Balb/C mice, weighing 19-21 g, were sensitised in a similar manner to that described by Klimuk et al., (Klimuk et al., 1999) by applying a solution of DNFB (0.5% in acetone:olive oil (4:1, v/v); 30 microliters,) onto a 2 cm^2 shaved area of the abdomen. After 7 days, the animals were anesthetised with diethyl ether and 8 microliters of DNFB (0.35% in acetone:olive oil (4:1, v/v) was applied to the dorsal and ventral surfaces of the right pinna. Prior to regaining consciousness, the mice were implanted intraperitoneally with Alzet 2001 mini-osmotic pumps (Alza Corp., Palo Alto Calif., USA) containing phosphoric acid mono-[6-(3-hexyloxy-propyl)-3,4,5-trihydroxy-tetrahydro-pyran-2-ylmethyl] ester, sodium salt in normal saline. The dose delivered was 50 mg/kg/day. Control animals for this group received saline delivered in identical mini-osmotic pumps. A second experimental group of mice received phosphoric acid mono-[3-(3,4,5-trihydroxy-6-phosphonooxymethyl-tetrahydro-pyran-2-yl)-propyl] ester disodium salt via one-week delivery Alzet 2001 mini-osmotic pumps implanted intraperitoneally. This compound was delivered at a dose of 40 mg/kg/day. Control animals for this group received saline delivered in identical mini-osmotic pumps. In a third experiment a separate group of mice received (3,4,5-trihydroxy-6-phosphonooxymethyl-tetrahydro-pyran-2-yl)-acetic acid disodium salt via one-week delivery Alzet 2001 mini-osmotic pumps that were placed intraperitoneally. This compound was delivered at 45 mg/kg/day. The control group for this experiment received identical mini-osmotic pumps containing normal saline. In a fourth experiment a group of mice received 3-phenyl-2-[2-(3,4,5-trihydroxy-6-phosphonooxymethyl-tetrahydro-pyran-2-yl)-acetylamino]-propionic acid monosodium salt via one-week delivery Alzet 2001 mini-osmotic pumps that were placed subcutaneously. This compound was delivered at 62 mg/kg/day. The control group for this experiment received identical mini-osmotic pumps containing normal saline. In a fifth experiment a group of mice received hexanoic acid 3-(3,4,5-trihydroxy-6-phosphonooxymethyl-tetrahydro-pyran-2-yl)-propyl ester sodium salt via one-week delivery Alzet 2001 mini-osmotic pumps that were placed subcutaneously. This compound was delivered at 40 mg/kg/day. The control group for this experiment received identical mini-osmotic pumps containing normal saline.
Twenty-four hours after challenge the mice were lightly anesthetised with diethyl ether and the thickness of the left and right pinnae measured (in millimeters) using a dial gauge micrometer (Interapid, Switzerland). Care was taken to measure only the outer two thirds of the ear. The increase in ear thickness initiated by the DTH response was determined by subtracting the measurement of the left ear (untreated) from the right ear (challenged).
In Table 4, values in the columns labeled Left and Right are measurements of ear thickness in millimeters of the control and challenged ears respectively.

[2] = tested on: lymphocyte migration into the spleen; assay: Inhibition of lymphocyte migration into lymphoid tissue (spleen); format: in vivo, Balb/C mice; conditions: intravenous dose of 5 mg of test compound together with labelled lymphocytes; spleens removed 1.5 hours after injection
Text: In the present example, spleens from specific pathogen free 6-8 week old female Balb/C mice [19-21 g] were used to prepare a single cell suspension in the usual manner in mixed lymphocyte culture medium (DMEM plus glucose, folic acid, L-asparagine, sodium bicarbonate, L-glutamine, sodium pyruvate, HEPES, 2-mercaptoethanol, penicillin, streptomycin, neomycin, and 2% fetal calf serum) by pushing through a stainless steel screen. Following cell collection the red blood cells were lysed in the usual manner by treating with a solution of ammonium chloride, EDTA and sodium hydrogen carbonate (pH 7.3) and the preparation strained (Falcon 2350 cell strainer). All cell preparative steps were performed on ice.
In order to deplete the preparation of B lymphocytes, the cells were suspended in purified rat anti-mouse CD45/B220 antibody (RA3-6B2 clone; PharMingen, USA) at a concentration of 4×10^7 cells per ml and incubated on ice for 20 minutes. An equal volume of mixed lymphocyte culture medium (as above) was then added and the cells centrifuged (200× g) and resuspended at a concentration of 1×10^7 cells per ml in BioMag goat ant-rat IgG (H&L) linked to magnetic beads (Bio Mag; Perseptive Diagnostics, Polysciences Inc, USA). Following a 20 minute incubation on ice, with agitation every 5 minutes, the goat anti-rat IgG/antibody complex was removed using magnetic separation (Dynal MPC-6, Dynal, USA). The magnetic separation procedure was repeated 4 times giving a cell population containing approximately 80-90% T lymphocytes (determined by FACS analysis).
The cells were then washed in Hanks media, resuspended in 5 ml of Hanks, and radio-labelled for 30 minutes at 37° C. with sodium chromate solution (^51Cr, 34 MBq/ml, Amersham, UK). The labelled cells were washed in PBS centrifuged (200×g) and a portion were resuspended at a concentration of 3×10^7 cells/ml in either PBS (negative control), or PBS containing the test compound (25 mg/ml), and stored on ice. Balb/C mice in the negative control and treatment groups received a volume of 0.2 ml of the labelled cell preparation by a lateral tail vein injection. Negative control mice received 0.2 ml of PBS together with 6×10^6 51chromium-labelled lymphocytes, and mice from the treated groups received an intravenous dose of 5 mg of the test compound together with 6 million ^51chromium-labelled lymphocytes. […]
Spleens from the recipient mice were removed 1.5 hours after injection and the cell-associated radioactivity (CPM) determined using a gamma counter (Packard Auto-Gamma 5650. IL, USA). Results (inhibition of lymphocyte migration into the spleen) were expressed as a percentage reduction in the CPM of the spleens from treated animals compared with negative controls.

[3] = tested on: T lymphocyte migration into the right ear; assay: Inhibition of in vivo migration of T lymphocytes into extra lymphatic tissues (picryl chloride treated ear); parameters: species or system Balb/C mice; conditions: 5 mg per mouse, IV, 9 to 10 hours after cell transfer
Text: T lymphocytes are known to migrate from the blood stream into tissues, including tissues that contain an antigen to which they can respond. An in vivo example of T lymphocyte migration involves the intravenous injection of radioisotopically- or fluorescently-labelled antigen-specific T cells into a mammal that has the antigen present in one or more of its tissues. An assessment of the degree to which the injected T cells have accumulated in the antigen-containing tissue can be made either by measuring the amount of radioactivity present in the tissue or analysing the tissue histologically to determine the number of infiltrated fluorescently labelled cells. […] For example, in the case of a CNS antigen the cells will localise in the brain and spinal cord and the number of labelled cells that have accumulated there can then be determined. […] Within a short time of cell transfer sensitised T cells begin to accumulate in the haptenised tissue and eight to twenty-four hours later the tissue can be removed and the cell accumulation assessed. In the case of fluorescently-labelled cells their accumulation is assessed histologically and in the case of the radio-labelled cells accumulation is assessed by counting radio active decay in a suitable device. […]

Row | Compound | Mean percentage decrease in ear swelling in treated animals ([1]; 45 mg/kg/day intraperitoneally, versus saline controls) | Mean Difference, Treated ([1]; group mean, 45 mg/kg/day intraperitoneally, saline control mean 0.068) | Difference (right minus left ear), Treated ([1]; individual mice, 45 mg/kg/day, mini-osmotic pump intraperitoneally, 24 hours after challenge, disodium salt) | Right ear thickness, Treated ([1]; individual mice, challenged ear, 45 mg/kg/day, mini-osmotic pump intraperitoneally, 24 hours after challenge, disodium salt) | Left ear thickness, Treated ([1]; individual mice, control (unchallenged) ear, 45 mg/kg/day, mini-osmotic pump intraperitoneally, 24 hours after challenge, disodium salt) | Percent Inhibition (relative to negative controls) of lymphocyte migration into spleens [2] | Percent inhibition of T cell migration [3]
1 | O=C([O-])CC1OC(COP(=O)(O)O)C(O)C(O)C1O.O=C([O-])CC1OC(COP(=O)(O)O)C(O)C(O)C1O.[Na+].[Na+] (stereo not shown) [(3,4,5-trihydroxy-6-phosphonooxymethyl-tetrahydro-pyran-2-yl)-acetic acid disodium salt] | Mean percentage decrease in ear swelling intreated animals: 29.4% | 0.048 millimeters | 0.06 millimeters (2×) and 0.05 millimeters (3×) and 0.03 millimeters (3×) and 0.07 millimeters | 0.27 millimeters (3×) and 0.24 millimeters (2×) and 0.29 millimeters and 0.26 millimeters (3×) | 0.21 millimeters (6×) and 0.22 millimeters (2×) and 0.23 millimeters | 85.5% | –
2 | Phenylethyl (3,4,5-trihydroxy-6-phosphonooxymethyl-tetrahydro-pyran-2-yl)-acetic acid ester | – | – | – | – | – | – | 26.1%
